This passage reports IC50 results from patent US20240150287A1, “N-(BENZOYL)-PHENYLALANINE COMPOUND, PHARMACEUTICAL COMPOSITION CONTAINING SAME, AND USE THEREOF” (Hangzhou Apeloa Medicine Research Institute Co., Ltd., priority 2021, published 2024).

recombinant human integrin α4β7 (binding to recombinant human MAdCAM-1), sequence (P13612 34-970): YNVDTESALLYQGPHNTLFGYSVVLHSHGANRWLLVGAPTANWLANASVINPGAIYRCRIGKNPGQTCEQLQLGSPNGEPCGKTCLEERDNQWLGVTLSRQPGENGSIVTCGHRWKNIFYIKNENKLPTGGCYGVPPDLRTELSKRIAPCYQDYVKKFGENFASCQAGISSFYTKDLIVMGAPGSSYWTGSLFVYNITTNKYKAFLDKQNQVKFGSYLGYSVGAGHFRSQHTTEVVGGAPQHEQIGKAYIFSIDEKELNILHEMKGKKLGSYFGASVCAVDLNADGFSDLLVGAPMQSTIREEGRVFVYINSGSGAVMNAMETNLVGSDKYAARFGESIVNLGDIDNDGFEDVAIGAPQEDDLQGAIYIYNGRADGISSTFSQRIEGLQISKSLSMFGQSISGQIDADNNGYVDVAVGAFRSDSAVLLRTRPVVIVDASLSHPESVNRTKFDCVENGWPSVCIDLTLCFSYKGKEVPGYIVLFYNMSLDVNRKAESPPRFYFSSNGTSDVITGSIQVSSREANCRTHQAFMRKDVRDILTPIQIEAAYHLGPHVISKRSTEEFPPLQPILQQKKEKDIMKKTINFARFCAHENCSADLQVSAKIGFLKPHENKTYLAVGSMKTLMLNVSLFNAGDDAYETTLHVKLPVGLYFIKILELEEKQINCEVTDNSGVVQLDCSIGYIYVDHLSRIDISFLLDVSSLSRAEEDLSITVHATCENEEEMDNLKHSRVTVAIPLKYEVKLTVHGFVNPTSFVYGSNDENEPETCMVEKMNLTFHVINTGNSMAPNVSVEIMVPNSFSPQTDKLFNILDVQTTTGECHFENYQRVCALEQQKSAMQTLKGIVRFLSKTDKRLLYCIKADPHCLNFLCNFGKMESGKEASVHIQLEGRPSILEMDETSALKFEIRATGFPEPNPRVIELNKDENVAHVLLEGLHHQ
recombinant human integrin α4β7 (binding to recombinant human MAdCAM-1), sequence (P26010 20-723): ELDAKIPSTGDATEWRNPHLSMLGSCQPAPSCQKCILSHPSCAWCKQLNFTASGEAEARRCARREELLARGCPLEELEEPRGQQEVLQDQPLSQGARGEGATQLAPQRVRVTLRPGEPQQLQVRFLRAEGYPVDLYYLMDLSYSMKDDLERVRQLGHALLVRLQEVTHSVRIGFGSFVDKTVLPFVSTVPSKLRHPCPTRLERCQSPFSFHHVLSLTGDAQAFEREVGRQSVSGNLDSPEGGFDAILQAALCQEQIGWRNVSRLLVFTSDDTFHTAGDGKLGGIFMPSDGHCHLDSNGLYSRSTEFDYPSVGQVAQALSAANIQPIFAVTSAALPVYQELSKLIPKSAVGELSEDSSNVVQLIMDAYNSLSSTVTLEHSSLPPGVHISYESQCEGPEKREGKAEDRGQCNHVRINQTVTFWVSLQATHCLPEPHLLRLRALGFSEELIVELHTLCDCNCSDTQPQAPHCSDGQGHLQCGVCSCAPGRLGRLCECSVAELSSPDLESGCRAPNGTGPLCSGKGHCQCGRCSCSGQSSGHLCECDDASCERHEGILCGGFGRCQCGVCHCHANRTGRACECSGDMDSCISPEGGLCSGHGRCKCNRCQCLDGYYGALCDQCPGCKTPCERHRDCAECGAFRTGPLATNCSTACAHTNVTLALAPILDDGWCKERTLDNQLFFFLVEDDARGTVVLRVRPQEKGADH

The assay has as its target recombinant human integrin α4β7 (binding to recombinant human MAdCAM-1) (Homo sapiens (Human), UniProt P13612+P26010). The assay is described as follows: MAdCAM-1/α4β7 integrin binding inhibition activity evaluation test (α4β7-MAdCAM-1 ELISA). The settings on record: plate-coated recombinant human MAdCAM-1, recombinant human α4β7, 2 h room temperature, free form of compound. How it is done:
EXAMPLE: MADCAM-1/α4β7 INTEGRIN BINDING INHIBITION ACTIVITY EVALUATION TEST (α4β7-MADCAM-1 ELISA)
Coat the 96-well microplate (Costar) with 50 μL of recombinant human MAdCAM-1 (R&D Systems) solution per well, and incubate overnight (12-18 hours) at 4° C. Wash three times with 150 μL of TBS buffer per well. Block plate with 150 μL per well with blocking buffer for 1 h at 37° C. Wash three times with 150 μL of TBS buffer per well. Dilute the recombinant human integrin α4β7 (R&D Systems) with TBS buffer containing 0.1% bovine serum albumin (BSA), then add to the 96 well plate with 50 μL per well. Add 1 μL of test compound or DMSO, cover, incubate at room temperature for 2 h, wash three times with 150 μL of TBS buffer per well. Dilute the anti-β7 antibody (R&D Systems) with 0.1% BSA TBS buffer, then add to the 96 well plate with 50 μL per well, cover, incubate at room temperature for 1 h, wash three times with 150 μL of TBS buffer per well. Add 50 μL of streptavidin-HRP (R&D Systems) per well, incubate at room temperature for 20 min, wash three times with 150 μL of TBS buffer per well. Add 50 μL of TMB substrate solution (Sigma) per well, incubate at room temperature for 5-30 min, and add 25 μL of stop solution per well to stop the reaction. Finally, measure absorbance at 450 nm with microplate reader (SpectraMax 340PC. Molecular Devices). Repeat the test to find the binding rate of cells at each concentration when the absorbance of the well without the test substance is used as 100%, and calculate the concentration IC50 that causes 50% binding inhibition and summarize the results in Table 1.
It should be stated that, as a test compound, the free form of the compound synthesized in the above examples is used.
What is called IC50 is the concentration at which inhibition is half-maximal. With `O=C(N[C@@H](Cc1ccc(N2C(=O)C3(CC3)c3cc(F)c(F)cc32)cc1)C(=O)O)c1c(F)cccc1Cl` [Example 1, (S)-2-(2-chloro-6-fluorobenzamide)-3-(4-(5′,6′-difluoro-2′-oxospirino[cyclopropane-1,3′-indoline]-1′-yl)phenyl)propionic acid], the IC50 worked out at 14.3 nM.
As for `O=C(N[C@@H](Cc1ccc(N2C(=O)C3(CC3)c3cccc(Cl)c32)cc1)C(=O)O)c1c(F)cccc1Cl` [Example 2, (S)-3-(4-(7′-chloro-2′-oxospiro[cyclopropane-1,3′-indoline]-1′-yl)phenyl)-2-(2-chloro-6-fluorobenzamide) propionic acid], the figure is 2.57 nM.
As for `COc1cccc2c1N(c1ccc(C[C@H](NC(=O)c3c(Cl)cccc3Cl)C(=O)O)cc1)C(=O)C21CC1` [Example 3, (S)-2-(2,6-dichlorobenzamido)-3-(4-(7′-methoxy-2′-oxospiro[cyclopropane-1,3′-indoline]-1′-yl)phenyl)propionic acid], the figure is 5.48 nM; as for `O=C(N[C@@H](Cc1ccc(N2C(=O)C3(CC3)c3ccc(F)cc32)cc1)C(=O)O)c1c(Cl)cccc1Cl` [Example 4, (S)-2-(2,6-dichlorobenzamido)-3-(4-(6′-fluoro-2′-oxospiro[cyclopropane-1,3′-indoline]-1′-yl)phenyl)propionic acid], 2.54 nM.
As for `O=C(N[C@@H](Cc1ccc(N2C(=O)C3(CC3)c3cccc(F)c32)cc1)C(=O)O)c1c(Cl)cccc1Cl` [Example 5, (S)-2-(2,6-dichlorobenzoylamino)-3-(4-(7′-fluoro-2′-oxospiro[cyclopropane-1,3′-indoline]-1′-yl)phenyl)propionic acid], the figure is 2.87 nM.
For `O=C(N[C@@H](Cc1ccc(N2C(=O)C3(CC3)c3ccccc32)cc1)C(=O)O)c1c(Cl)cccc1Cl` [Example 6, (S)-2-(2,6-dichlorobenzamido)-3-(4-(2′-oxospiro[cyclopropane-1,3′-indoline]-1′-yl)phenyl)propionic acid], the 50% inhibitory concentration (IC50) was found to be 5.81 nM.
Take `O=C(N[C@@H](Cc1ccc(N2C(=O)C3(CCOCC3)c3cccc(Cl)c32)cc1)C(=O)O)c1c(F)cccc1Cl` [Example 7, (S)-3-(4-(7-chloro-2-oxo-2′,3′,5′,6′-tetrahydrospiro[indoline-3,4′-pyran]-1-yl)phenyl)-2-(2-chloro-6-fluorobenzamide)propionic acid]: the IC50 is 16.1 nM.
With `O=C(N[C@@H](Cc1ccc(N2C(=O)C3(CC3)c3cc(F)c(Cl)cc32)cc1)C(=O)O)c1c(F)cccc1Cl` [Example 8, (S)-3-(4-(6′-chloro-5′-fluoro-2′-oxospiro[cyclopropane-1,3′-indoline]-1′-yl)phenyl)-2-(2-chloro-6-fluorobenzamide)propionic acid], the IC50 turned out to be 17.6 nM.
Consider `O=C(N[C@@H](Cc1ccc(N2C(=O)C3(CC3)c3cc(F)ccc32)cc1)C(=O)O)c1c(F)cccc1Cl` [Example 9, (S)-2-(2-chloro-6-fluorobenzamide)-3-(4-(5′-fluoro-2′-oxospiro[cyclopropane-1,3′-indoline]-1′-yl)phenyl)propionic acid], for which the concentration for half-maximal inhibition (IC50) worked out at 95.5 nM.
As for `CC1(C)C(=O)N(c2ccc(C[C@H](NC(=O)c3c(F)cccc3Cl)C(=O)O)cc2)c2c(Cl)cccc21` [Example 10, (S)-3-(4-(7-chloro-3,3-dimethyl-2-oxoindoline-1-yl)phenyl)-2-(2-chloro-6-fluorobenzamide)propionic acid], the figure is 38.8 nM; as for `CN(C)c1cc2c(cc1F)C1(CC1)C(=O)N2c1ccc(C[C@H](NC(=O)c2c(F)cccc2Cl)C(=O)O)cc1` [Example 11, (S)-2-(2-chloro-6-fluorobenzamide)-3-(4-(6′-(dimethylamino)-5′-fluoro-2′-oxospiro[cyclopropane-1,3′-indoline]-1′-yl)phenyl)propionic acid], 3.05 nM.
The result for `CN(C)c1ccc2c(c1)C1(CC1)C(=O)N2c1ccc(C[C@H](NC(=O)c2c(F)cccc2Cl)C(=O)O)cc1` [Example 12, (S)-2-(2-chloro-6-fluorobenzamide)-3-(4-(5′-(dimethylamino)-2′-oxospiro[cyclopropane-1,3′-indoline]-1′-yl)phenyl)propionic acid] reads 4.15 nM; that for `O=C(N[C@@H](Cc1ccc(N2C(=O)C3(CC3)c3ccc(F)cc32)cc1)C(=O)O)c1c(F)cccc1Cl` [Example 13], 8.02 nM; that for `O=C(N[C@@H](Cc1ccc(N2C(=O)C3(CC3)c3cccc(F)c32)cc1)C(=O)O)c1c(F)cccc1Cl` [Example 14, (S)-2-(2-chloro-6-fluorobenzamide)-3-(4-(7-fluoro-2′-oxospiro[cyclopropane-1,3′-indoline]-1′-yl)phenyl)propionic acid], 6.21 nM.
The result for `O=C(N[C@@H](Cc1ccc(N2C(=O)C3(CC3)c3ccc(F)c(F)c32)cc1)C(=O)O)c1c(F)cccc1Cl` [Example 15, (S)-2-(2-chloro-6-fluorobenzamide)-3-(4-(6′,7′-difluoro-2′-oxospirino[cyclopropane-1,3′-indoline]-1′-yl)phenyl)propionic acid] reads 5.62 nM.
`O=C(N[C@@H](Cc1ccc(N2C(=O)C3(CC3)c3cccnc32)cc1)C(=O)O)c1c(Cl)cccc1Cl` [Example 16, (S)-2-(2,6-dichlorobenzamido)-3-(4-(2′-oxospiro[cyclopropane-1,3′-pyrrolo[2,3-b]pyridine]-1′(2′H)-yl)phenyl)propionic acid]: the IC50 was 0.75 nM.
As for `O=C(N[C@@H](Cc1ccc(N2C(=O)C3(CC3)c3cccc(Cl)c32)cc1)C(=O)O)c1c(Cl)cc(Cl)cc1Cl` [Example 17, (S)-3-(4-(7′-chloro-2′-oxospiro[cyclopropane-1,3′-indoline]-1′-yl)phenyl)-2-(2,4,6-trichlorobenzoylamino)propionic acid], the figure is 64.2 nM; as for `O=C(N[C@@H](Cc1ccc(N2C(=O)C3(CC3)c3cccc(Cl)c32)cc1)C(=O)O)c1c(Cl)cc(N2CCOCC2)cc1Cl` [Example 19, (S)-3-(4-(7′-chloro-2′-oxospiro[cyclopropane-1,3′-indoline]-1′-yl)phenyl)-2-(2,6-dichloro-4-morpholinobenzoylamino)propionic acid], 11.4 nM; as for `O=C(N[C@@H](Cc1ccc(N2C(=O)C3(CC3)c3cccc(Cl)c32)cc1)C(=O)O)c1c(Cl)cc(N2CC3CC2CO3)cc1Cl` (some centres unmarked) [Example 20], 4.15 nM.
As for `O=C(N[C@@H](Cc1ccc(N2C(=O)C3(CC3)c3cccc(Cl)c32)cc1)C(=O)O)c1c(Cl)cc(N2CCC(N3CCOCC3)CC2)cc1Cl` [Example 21, (S)-3-(4-(7′-chloro-2′-oxospiro[cyclopropane-1,3′-indoline]-1′-yl)phenyl)-2-(2,6-dichloro-4-(4-morpholinopiperidin-1-yl)benzoylamino)propionic acid], the figure is 23.7 nM; as for `Cn1c(=O)n(-c2ccc(C[C@H](NC(=O)c3c(F)cccc3Cl)C(=O)O)cc2)c2c(Cl)cccc21` [Example 22, (S)-3-(4-(7-chloro-3-methyl-2-oxo-2,3-dihydro-1H-benzo-1H-imidazol-1-yl)phenyl)-2-(2-chloro-6-fluorobenzamide)propionic acid], 1.19 nM; as for `O=C(N[C@@H](Cc1ccc(-n2c(=O)n(C3CC3)c3cc(Cl)ccc32)cc1)C(=O)O)c1c(Cl)cccc1Cl` [Example 23, (S)-3-(4-(5-chloro-3-cyclopropyl-2-oxo-2,3-dihydro-1H-benzo[d]imidazol-1-yl)phenyl)-2-(2,6-dichlorobenzamido)propionic acid], 143 nM.
The result for `O=C(N[C@@H](Cc1ccc(-n2c(=O)n(C3CC3)c3ccc(Cl)cc32)cc1)C(=O)O)c1c(Cl)cccc1Cl` [Example 24, (S)-3-(4-(6-chloro-3-cyclopropyl-2-oxo-2,3-dihydro-1H-benzo[d]imidazol-1-yl)phenyl)-2-(2,6-dichlorobenzamido)propionic acid] reads 5.67 nM; that for `O=C(N[C@@H](Cc1ccc(-n2c(=O)n(C3CC3)c3cccc(Cl)c32)cc1)C(=O)O)c1c(Cl)cccc1Cl` [Example 25, (S)-3-(4-(7-chloro-3-cyclopropyl-2-oxo-2,3-dihydro-1H-benzo[d]imidazol-1-yl)phenyl)-2-(2,6-dichlorobenzamido)propionic acid], 7.5 nM; that for `Cn1c(=S)n(-c2ccc(C[C@H](NC(=O)c3c(F)cccc3Cl)C(=O)O)cc2)c2c(Cl)cccc21` [Example 26, (S)-3-(4-(7-chloro-3-methyl-2-thio-2,3-dihydro-1H-benzo[d]imidazol-1-yl)phenyl)-2-(2-chloro-6-fluorobenzoylamino)propionic acid], 160 nM.
`O=C(N[C@@H](Cc1ccc(-n2c(=O)n(C3CC3)c3cccc(F)c32)cc1)C(=O)O)c1c(F)cccc1Cl` [Example 27, (S)-2-(2-chloro-6-fluorobenzoylamino)-3-(4-(3-cyclopropyl-7-fluoro-2-oxo-2,3-dihydro-1H-benzo [d]imidazol-1-yl)phenyl)propionic acid]: the 50% inhibitory concentration (IC50) was determined as 8.81 nM.
